US10858360B2, “Tricyclic gyrase inhibitors” (priority 2011, dated 2020)
Values after ≈ are worked out from the molar mass of the structure shown.

Key:
[1] = tested on: S. aureus ATCC 13709; test: MIC, S. aureus ATCC 13709 (Alamar Blue broth microdilution); format: cell-based; settings: Alamar Blue read after overnight incubation at 35° C.; for MIC Sa: S. aureus; for MIC: Staphylococcus aureus, ATCC13709, S. aureus
[2] = tested on: E. coli ATCC 25922; test: MIC, E. coli ATCC 25922; format: cell-based; settings: Alamar Blue read after overnight incubation at 35° C.; for MIC Ec: E. coli; for MIC: Escherichia coli, ATCC25922, E. coli

Row | SMILES | MIC Sa [1] [µg/mL] | MIC Ec [2] [µg/mL] | MIC [1] [µg/mL] | MIC [2] [µg/mL]
1 | CNc1cc(F)cc2c1[nH]c1nc(Oc3cncnc3)nc(N3CC4C(N)C4C3)c12 (centres unmarked) [4.001] | ≤0.5 | ≤0.5 | – | –
2 | CNc1cc(F)cc2c1[nH]c1nc(Oc3cncnc3)nc(N3CC[C@@]4(C[C@H]4N)C3)c12 [4.014] | – | – | ≤ 0.5 | 1 (≈ 2.38 µM)
3 | CNc1cccc2c1[nH]c1nc(Sc3cnc4cccnc4c3)nc(N3C[C@H](N)C[C@@H]3CO)c12 [1.68] | – | – | 16 (≈ 33.9 µM) | 32 (≈ 67.7 µM)
4 | CNc1cc(F)cc2c1[nH]c1nc(Oc3cncc(-c4cncnc4)c3)nc(N3CC4C(N)C4C3)c12 (centres unmarked) [4.205] | – | – | ≤ 0.5 | ≤ 0.5
5 | CNc1cc(F)cc2c1[nH]c1nc(Oc3cnc4cccnc4c3)nc(N3CC4(CC4N)C3)c12 (centres unmarked) [4.042] | ≤0.5 | ≤0.5 | – | –
6 | CNc1cccc2c1[nH]c1nc(Oc3cncc(C#N)c3)nc(N3CC4C(N)C4C3)c12 (centres unmarked) [3.27] | – | – | 1 (≈ 2.42 µM) | 4 (≈ 9.7 µM)
7 | CNc1cc(F)cc2c1[nH]c1nc(Oc3cnc4cccnc4c3)nc(N3CC4NCCOC4C3)c12 (centres unmarked) [4.048] | ≤0.5 | 1 (≈ 2.06 µM) | – | –
8 | CNc1cc(F)cc2c1[nH]c1nc(Oc3cnc(CO)nc3)nc(N3CC4CC3C[C@@H]4N)c12 (some centres unmarked) [4.390] | – | – | ≤ 0.5 | ≤ 0.5
9 | CNc1cc(F)cc2c1[nH]c1nc(Oc3cnc(N)nc3)nc(N3CCC(CN)C3)c12 (centres unmarked) [4.176] | – | – | ≤ 0.5 | 1 (≈ 2.36 µM)
10 | CCOC1CN(c2nc(Oc3cnc(C)nc3)nc3[nH]c4c(NC)cc(F)cc4c23)CC1N (mixture of isomers) [4.147] | ≤0.5 | 1 | – | –
11 | CNc1cccc2c1[nH]c1nc(Oc3cncnc3)nc(N3C[C@@H](N)C4(CC4)C3)c12 [3.46] | – | – | 2 (≈ 4.97 µM) | 4 (≈ 9.94 µM)
12 | CNc1cc(F)cc2c1[nH]c1nc(Oc3cnc(C)nc3)nc(N3CC4CCCC(N)C4C3)c12 (centres unmarked) [4.086] | ≤0.5 | 2 (≈ 4.32 µM) | – | –
13 | CNc1cc(F)cc2c1[nH]c1nc(Oc3cnc(C)nc3)nc(-c3ccc(Cl)cc3N)c12 [4.161] | ≤0.5 | ≤0.5 | – | –
14 | CNc1cc(F)c(F)c2c1[nH]c1nc(Oc3cnc(C)nc3)nc(N3CC4CC(N)C4C3)c12 (centres unmarked) [5.03] | ≤0.5 | ≤0.5 | – | –
15 | COc1nccc2c1[nH]c1nc(Sc3cnc4cccnc4c3)nc(N3CC4C(N)C4C3)c12 (centres unmarked) [7.03] | – | – | 2 (≈ 4.38 µM) | > 64
16 | CNc1cc(F)cc2c1[nH]c1nc(Oc3cncc(F)c3)nc(N3CCC4(C[C@H]4N)C3)c12 (some centres unmarked) [4.062] | – | – | ≤ 0.5 | ≤ 0.5

Row | SMILES | MIC Sa [1] [µg/mL] | MIC Ec [2] [µg/mL] | MIC [1] [µg/mL] | MIC [2] [µg/mL]
17 | CNc1cc(F)cc2c1[nH]c1nc(Oc3cncc(F)c3)nc(N3CC4CC(N)C4C3)c12 (centres unmarked) [4.060] | ≤0.5 | ≤0.5 | – | –
18 | CNc1cc(F)cc2c1[nH]c1nc(Oc3cnc(C)nc3)nc(N3CCCC(C)(N)C3)c12 (centres unmarked) [4.088] | ≤0.5 | 1 (≈ 2.29 µM) | – | –
19 | CNc1cc(F)cc2c1[nH]c1nc(Oc3cnc4c(c3)ncn4C)nc(N3CC4CC3CC4N)c12 (centres unmarked) [4.228] | ≤0.5 | 1 (≈ 2.11 µM) | – | –
20 | CNc1cccc2c1[nH]c1nc(Oc3cncnc3)nc(N3CC4CC4(N)C3)c12 (centres unmarked) [3.1] | – | – | 1 (≈ 2.57 µM) | 4 (≈ 10.3 µM)
21 | CNc1ncc(Oc2nc(N3CCC4(CC4N)C3)c3c(n2)[nH]c2c(NC)cc(F)cc23)cn1 (centres unmarked) [4.220] | – | – | ≤ 0.5 | ≤ 0.5
22 | CNc1cc(F)cc2c1[nH]c1nc(Oc3cnc4cccnc4c3)nc(N3CC[C@]4(C[C@@H]4N)C3)c12 [4.040] | – | – | ≤ 0.5 | ≤ 0.5
23 | CNc1cc(F)cc2c1[nH]c1nc(Oc3cnc(C(C)C)nc3)nc(N3CC4C(N)C4C3)c12 (centres unmarked) [4.232] | ≤0.5 | ≤0.5 | – | –
24 | CNc1cc(F)cc2c1[nH]c1nc(Oc3cnc(N4CC(O)C4)nc3)nc(N3CC4C(N)C4C3)c12 (centres unmarked) [4.298] | – | – | ≤ 0.5 | 2 (≈ 4.19 µM)
25 | CNc1cc(F)cc2c1[nH]c1nc(Oc3cnc(C)nc3)nc(N3CC(NC(=O)CN)C4(CC4)C3)c12 (centres unmarked) [4.085] | ≤0.5 | 2 (≈ 4.07 µM) | – | –
26 | CNc1cc(F)cc2c1[nH]c1nc(Oc3cnc(C)nc3)nc(N3C[C@H]4CCC(N)[C@@]4(C)C3)c12 (some centres unmarked) [4.099] | ≤0.5 | 4 (≈ 8.65 µM) | – | –
27 | CNc1cccc2c1[nH]c1nc(Oc3ccc[n+]([O-])c3)nc(Oc3cnc(C)nc3)c12 [3.39] | – | – | 2 (≈ 4.81 µM) | 64 (≈ 154 µM)
28 | CNc1cccc2c1[nH]c1nc(Sc3cnc4ccc[n+]([O-])c4c3)nc(N3CC4C(C3)C4NC(=O)[C@H](C)N)c12 (some centres unmarked) [1.52] | – | – | 1 (≈ 1.85 µM) | 16 (≈ 29.5 µM)
29 | CNc1cc(F)cc2c1[nH]c1nc(Oc3ccc4nc[nH]c(=O)c4c3)nc(N3CC4C(N)C4C3)c12 (centres unmarked) [4.231] | ≤0.5 | 2 (≈ 4.23 µM) | – | –
30 | CNc1cc(F)cc2c1[nH]c1nc(Oc3ccc4c(c3)C(=O)NCC4)nc(N3CCC4(CC4N)C3)c12 (centres unmarked) [4.300] | ≤0.5 | ≤0.5 | – | –
31 | CNc1cccc2c1[nH]c1nc(Oc3cncnc3)nc(Oc3cncnc3)c12 [3.37] | – | – | 2 (≈ 5.18 µM) | > 64
